The subject of series [1] is NIH 3T3 fibroblasts. Nature of the series: Uptake assay: cell-related FITC fluorescence corrected for cell number. Format: cell-based, mouse. The conditions noted are these: for cellular uptake / internalization efficiency: K(FITC)-labelled peptide. As to the method:
NIH 3T3 mouse fibroblast cells were cultured as a monolayer at 37° C. with 10% CO2 in Dulbecco's Modified Eagle's Medium (DMEM) supplemented with 10% fetal bovine serum, 4 mM L-glutamine, 100 μg/mL streptomycin and 100 U/mL penicillin (all purchased from Biochrom AG, Germany). Cells were passaged by trypsinization with trypsin/EDTA 0.05/0.02% (w/v) in phosphate-buffered saline (PBS; Biochrom AG, Germany) every second to third day.
(§1) Internalization experiments on cells were performed in 96 well microplates by inoculation of NIH 3T3 fibroblasts (1×10^4 cells/well). After 24 h, cells were incubated with 2.5 μM of different peptide solutions in DMEM for additional 18 h at 37° C. with 10% CO2. Before washing, cells were incubated with Bisbenzimid 33342 (Hoechst 33342), a nuclear stain, in order to estimate the cell number. Cells were washed with Hanks' buffered saline (Biochrom AG, Germany) and extracellular fluorescence was quenched by incubating with cold trypan blue 0.05% (w/v) in phosphate-buffered saline (Biochrom AG, Germany) for 3 min followed by repeated washes with Hanks' buffered saline. Cell-related FITC fluorescence (Ex 485 nm/Em 530 nm) and cell number (Ex 346 nm/Em 460 nm) was evaluated in a multiplate reader. Experiments were run at least three times for each peptide with six replicates. Statistical analysis was performed by Student's t-test or ANOVA with Dunnett's post test. P values <0.05 were considered significant. The results are depicted in FIGS. 1 to 3.

Series [2] concerns NIH 3T3 fibroblasts. Nature of the series: Fluorescence microscopy of cellular localization and distribution of the peptide. The conditions noted are these: for intracellular fluorescence distribution (vesicular / diffused cytosolic): K(FITC)-labelled peptide, 2.5 μM, live cells without fixation. Format: cell-based, mouse. The source says:
(§2) The same cells were subjected to microscopic studies without fixation using a Zeiss Axiovert 200 M (Germany) microscope with a LD Plan NeoFluor 40× objective. The imaging conditions were kept constant for the observation of different samples. Cellular localization and distribution of the peptide was observed by irradiating with blue light (470/40 nm) and observing at 525/50 nm. The bright punctate and encapsulated appearing FITC fluorescence was categorized as vesicular uptake while diffused fluorescence appeared to be distributed in the entire cell with similar intensity. […] Also phase contrast images with DIC of the same area were made to observe if the cells maintain their normal morphology in the presence of peptides.

In a further series the test system is C6 rat glioma. Kind of series: Internalization in additional cell lines. Format: cell-based. The method, then: (§3) C6 rat glioma N18 mouse neuroblastoma (differentiated, undifferentiated) CCL-11 mouse fibrosarcoma Shin3 human ovarian carcinoma PANC1 human pancreatic carcinoma Primary murine bone marrow cells
(§4) Cells were cultivated using their respective optimized growth medium and passaged as described. Differentiation was induced in N18 cells by stepwise reduction of serum in the growth medium from 10% to 1.25%.
as §1, §2

For series [3], the system named is CCL-11 mouse fibrosarcoma. Nature of the series: Internalization in additional cell lines. The format is cell-based. As to the method:
as §3, §4, §1, §2

Series [4] deals with N18 mouse neuroblastoma (undifferentiated). Nature of the series: Internalization in additional cell lines. The format is cell-based. The method, then:
as §3, §4, §1, §2

Series [5] has as its system PANC1 human pancreatic carcinoma. Nature of the series: Internalization in additional cell lines. The format is cell-based. As to the method:
as §3, §4, §1, §2

The subject of series [6] is Shin3 human ovarian carcinoma. Nature of the series: Internalization in additional cell lines. Format: cell-based. The method, then: as §3, §4, §1, §2
Series [7] has as its system differentiated N18 neuroblastoma cells. Kind of series: Internalization in additional cell lines. Format: cell-based, mouse. The conditions noted are these: differentiated N18, serum reduced from 10% to 1.25%. The method, then:
as §3, §4
as §1, with “P values <0.05 were considered significant. The results are depicted in FIGS. 1 to 3.” left out

Series [8] relates to Primary murine bone marrow cells. Nature of the series: Internalization in additional cell lines. The format is cell-based, mouse. The method, then:
as §3
Bone marrow cells were extracted from hind legs of sacrificed mice and were kept in supplemented IMDM medium.
as §1, with “3. […]” for “3.”

Series [9] can be described thus: Peptide NMR in water, solution state. Format: physicochemical. As to the method:
Sample solutions were prepared at pH 4-4.5 and pH 6.5-7 in water. At pH 4.5 standard set of 2D homonuclear experiments (2D-ipCOSY, 2D-TOCSY, two 2D-NOESY spectra at different mixing times (100 and 200 ms)) and heteronuclear experiments (^13C-HSQC and ^15N-HSQC) were performed. The sample yielded well resolved spectra consistent with a monomeric peptide. Using these spectra it was possible to complete a full assignment of all non-exchangeable proton resonances, plus the carbon and nitrogen resonances.
Whereas at pH 6.5, broadening of lines, probably due to the formation of high molecular weight aggregates, makes it difficult to assign individual resonances. Thus, the presence or absence of disulfide bridges in this sample could not be deduced.
NMR experiments were carried out at 600 MHz on a Bruker Avance III spectrometer.

Series [10] has as its system different cell types and mouse blastocysts. The following applies: cited from earlier work.
Another series concerns cells. The conditions noted are these: cited from earlier work.

Where two headings read alike, the source gives them in different places. Square brackets hold non-standard residues; d marks the D form. Ends that are not written are not given here. K(FITC) = lysine labelled with FITC

Turning to “K (FITC)-CRWRWKCCKK ({K(FITC)}-CRWRWKCCKK; cysteine pairing not given here) [peptide 23]”, the “delivery efficiency compared with penetratin” value in the series with NIH 3T3 fibroblasts [1] (2.5 μM) was “better taken up by cells”. Further, the “cellular uptake / internalization efficiency” value in the series with NIH 3T3 fibroblasts [1] (2.5 μM, 18 h, 37° C.) is “competently taken up by cells”. In addition, in the series with NIH 3T3 fibroblasts [1] (excess DTT in the incubation medium), the “uptake and cytosolic diffused fluorescence on addition of Dithiothreitol (DTT)” value is recorded as “reduced the uptake as well as the cytosolic diffused fluorescence”. Further, in the series with NIH 3T3 fibroblasts [1] (subtoxic concentrations), the “concentration at which efficient cellular uptake and cytosolic location along with vesicular distribution is shown” value is below 2.5 µM. For the same substance, the “intracellular fluorescence distribution (vesicular / diffused cytosolic)” value in the series on NIH 3T3 fibroblasts [2] was “endosomal as well as cytoplasmic fluorescence distribution”. Besides, in the series with NIH 3T3 fibroblasts [2] (concentration as low as 2.5 μM), the “cytosolic distribution at low concentration” value is recorded as “retaining the cytosolic distribution”. The “uptake behaviour and fluorescence distribution” value (in the series on C6 rat glioma; in series [3]; in series [4]; in series [5]; in series [6]; in series [8]) was “comparable uptake behaviour with vesicular as well as diffused cytosolic fluorescence distribution” in each case. Besides, the uptake entry in series [7] is on record as “strongly reduced”. In addition, the “solution state of the peptide” value in [9] (pH 4.5 in water) was “unstructured and in a reduced state”; in series [9] (pH 6.5 in water) it was “aggregation”.

In the case of Crotamine, in series [10] (applied before cell division, after the telophase), the intracellular localization entry is listed as “mainly localized in the cytoplasm”. Moreover, in series [10], the intracellular localization result is listed as “localize preferably in the nucleus” and the non-toxic concentration entry was “up to 1 μM”. Besides, the cell penetration entry in [10] (in vitro) is “penetrating into different cell types and mouse blastocysts”.

For the substance “K (FITC)-KMDCRWRWKCCKK ({K(FITC)}-KMDCRWRWKCCKK; cysteine pairing not given here) [peptide 1, reference compound]”, the “cellular uptake / internalization efficiency” value with NIH 3T3 fibroblasts [1] (2.5 μM, 18 h, 37° C.) is “efficient CPP”. In addition, the “intracellular fluorescence distribution (vesicular / diffused cytosolic)” value with NIH 3T3 fibroblasts [2] is on record as “cytoplasmic diffusion”. In addition, in the series with cells, the internalization into cells result is recorded as “able to internalize into cells”.

Turning to “Ac-tccgtgaacggc-K(FITC)-CRWRWKCCKK-CONH2 (chain 1 Ac-[code t][code c][code c][code g][code t][code g][code a][code a][code c][code g][code g][code c]; chain 2 {K(FITC)}-CRWRWKCCKK-NH2; not fully specified (C-terminus); cysteine pairing not given here; also: chain 1 is a PNA strand joined via Lys(FITC) to peptide chain 2) [PNA-CyLoP-1 fusion]”, the “uptake compared to peptide 23 (CyLoP-1)” value with NIH 3T3 fibroblasts [1] (2.5 μM, 18 h, 37° C.) is recorded as “lowest intracellular fluorescence”.

These data come from US20110027300A1, “Identification of a novel cysteine-rich cell penetrating peptide” (Max-Planck-Gesellschaft zur Forderung der Wissenschaften …, priority 2008, published 2011).
